Assays:
[1] = target: T1, von Hippel-Lindau disease tumor suppressor/Androgen receptor (Homo sapiens, UniProt P10275+P40337); assay: Protac activity at VHL (unknown origin)/Androgen receptor (unknown origin) assessed as full-length Androgen receptor degradation measured by immunoblotting method; format: protein assay
Target sequence in this assay (P10275 whole entry, canonical isoform): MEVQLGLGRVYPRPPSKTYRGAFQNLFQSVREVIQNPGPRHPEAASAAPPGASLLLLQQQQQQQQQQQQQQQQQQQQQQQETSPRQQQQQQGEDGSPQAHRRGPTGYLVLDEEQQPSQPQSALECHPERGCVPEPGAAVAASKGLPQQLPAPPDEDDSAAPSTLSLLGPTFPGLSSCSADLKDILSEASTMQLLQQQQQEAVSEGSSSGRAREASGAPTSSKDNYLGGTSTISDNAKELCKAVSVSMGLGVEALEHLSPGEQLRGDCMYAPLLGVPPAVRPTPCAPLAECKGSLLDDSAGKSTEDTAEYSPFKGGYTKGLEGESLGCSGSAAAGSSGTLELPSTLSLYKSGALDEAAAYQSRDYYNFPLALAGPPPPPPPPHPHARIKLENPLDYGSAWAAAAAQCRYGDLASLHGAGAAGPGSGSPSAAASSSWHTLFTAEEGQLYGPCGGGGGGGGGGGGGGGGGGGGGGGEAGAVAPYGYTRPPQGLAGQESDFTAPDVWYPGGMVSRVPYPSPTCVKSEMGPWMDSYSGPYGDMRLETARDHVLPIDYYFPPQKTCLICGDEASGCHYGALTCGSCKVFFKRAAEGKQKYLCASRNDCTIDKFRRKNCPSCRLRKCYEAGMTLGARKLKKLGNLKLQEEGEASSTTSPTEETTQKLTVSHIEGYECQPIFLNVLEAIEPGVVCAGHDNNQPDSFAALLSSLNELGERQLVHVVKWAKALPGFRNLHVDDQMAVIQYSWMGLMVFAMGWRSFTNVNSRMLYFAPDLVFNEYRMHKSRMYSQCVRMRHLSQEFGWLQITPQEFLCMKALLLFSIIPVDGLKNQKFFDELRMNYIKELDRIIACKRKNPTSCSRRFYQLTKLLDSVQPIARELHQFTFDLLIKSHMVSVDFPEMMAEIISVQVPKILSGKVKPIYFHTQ
Target sequence in this assay (P40337 whole entry, canonical isoform): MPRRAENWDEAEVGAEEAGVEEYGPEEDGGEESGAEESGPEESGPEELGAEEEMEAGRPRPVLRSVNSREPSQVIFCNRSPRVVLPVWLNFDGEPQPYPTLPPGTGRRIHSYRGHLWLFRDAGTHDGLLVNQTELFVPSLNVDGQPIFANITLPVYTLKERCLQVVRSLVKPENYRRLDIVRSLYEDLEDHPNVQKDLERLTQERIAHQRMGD

[2] = target: T1, von Hippel-Lindau disease tumor suppressor/Androgen receptor; assay: Protac activity at VHL (unknown origin)/Androgen receptor splice variant7 (unknown origin) assessed as Androgen receptor degradation measured by immunoblotting method
Target sequence in this assay (P10275 whole entry, looked up, change not shown, canonical isoform): as the sequence (P10275 whole entry, canonical isoform) above
Target sequence in this assay (P40337 whole entry, looked up, change not shown, canonical isoform): as the sequence (P40337 whole entry, canonical isoform) above

[3] = target: T1, von Hippel-Lindau disease tumor suppressor/Androgen receptor; assay: Protac activity at VHL/Androgen receptor in human LNCaP cells assessed as Androgen receptor degradation; format: cell-based
Target sequence in this assay (P10275 whole entry, canonical isoform): as the sequence (P10275 whole entry, canonical isoform) above
Target sequence in this assay (P40337 whole entry, canonical isoform): as the sequence (P40337 whole entry, canonical isoform) above

[4] = target: T1, von Hippel-Lindau disease tumor suppressor/Androgen receptor; assay: Protac activity at VHL/Androgen receptor in human VCaP cells assessed as Androgen receptor degradation; format: cell-based
Target sequence in this assay (P10275 whole entry, canonical isoform): as the sequence (P10275 whole entry, canonical isoform) above
Target sequence in this assay (P40337 whole entry, canonical isoform): as the sequence (P40337 whole entry, canonical isoform) above

DC50 [1] [µM]	DC50 [2] [µM]	DC50 [3] [µM]	DC50 [4] [µM]	Compound
2	0.37			Cc1ncsc1-c1ccc([C@H](C)NC(=O)[C@@H]2C[C@@H](O)CN2C(=O)[C@@H](NC(=O)CCCCNC(=O)COc2c(-c3csc(N4CCOCC4)n3)ccc(F)c2F)C(C)(C)C)cc1
		< 0.001	< 0.001	Cc1ncsc1-c1ccc([C@H](CC(=O)N2CCC(N3CCC(C#Cc4ccc(C(=O)N[C@H]5C(C)(C)[C@H](Oc6ccc(C#N)c(Cl)c6)C5(C)C)cc4)CC3)CC2)NC(=O)[C@@H]2C[C@@H](O)CN2C(=O)[C@@H](NC(=O)C2(F)CC2)C(C)(C)C)cc1

From ChEMBL document CHEMBL5137058, “Therapeutic Strategies to Target the Androgen Receptor” (J Med Chem, 2022)
